This is an account of results in patent US9650339B2, “Inhibitors of histone demethylases” (Gilead Sciences, Inc., priority 2013, dated 2017).

The structures appear in SMILES notation.

In one assay the target is KDM6A (UTX) (Homo sapiens, UniProt O15550). Nature of the assay: Histone lysine demethylase AlphaLISA assay, KDM6A. The format is biochemical. Particulars: read-out: KDM6A HDME Inhibition IC50. The method, boiled down:
(§1)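 AlphaLISA demethylation readout: enzyme preincubated 10 min, then 10 min with compounds in 3% DMSO buffer, before biotinylated methyl-lysine histone peptide substrate with 25 μM L-Asc and 10 μM α-KG, room temperature. Acceptor beads then streptavidin donor beads added, dark incubation, plates read.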
(In general: Bead proximity is the source of the signal in Alpha formats.)

The target in a further assay is T1, KDM2B (FBXL10) (Homo sapiens, UniProt Q8NHM5).
T1 sequence (Q8NHM5 1-650): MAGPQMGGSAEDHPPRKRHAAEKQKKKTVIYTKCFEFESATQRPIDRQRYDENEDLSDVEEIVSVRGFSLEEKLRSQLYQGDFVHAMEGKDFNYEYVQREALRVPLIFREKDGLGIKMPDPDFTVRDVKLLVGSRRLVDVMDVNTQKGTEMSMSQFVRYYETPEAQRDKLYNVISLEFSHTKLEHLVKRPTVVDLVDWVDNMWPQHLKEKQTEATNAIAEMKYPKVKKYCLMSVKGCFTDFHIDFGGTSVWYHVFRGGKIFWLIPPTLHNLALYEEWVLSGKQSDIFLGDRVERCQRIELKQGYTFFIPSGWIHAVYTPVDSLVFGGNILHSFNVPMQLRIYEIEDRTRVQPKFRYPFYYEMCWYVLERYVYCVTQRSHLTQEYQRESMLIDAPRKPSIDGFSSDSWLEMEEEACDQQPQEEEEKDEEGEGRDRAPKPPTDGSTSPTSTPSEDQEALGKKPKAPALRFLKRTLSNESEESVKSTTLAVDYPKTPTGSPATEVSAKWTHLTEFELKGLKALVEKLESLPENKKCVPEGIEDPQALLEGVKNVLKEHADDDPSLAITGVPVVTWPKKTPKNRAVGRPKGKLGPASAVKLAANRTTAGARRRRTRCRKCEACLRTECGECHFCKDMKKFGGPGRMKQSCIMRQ
Nature of the assay: Histone lysine demethylase AlphaLISA assay, KDM2B. The format is biochemical. Particulars: read-out: KDM2B HDME Inhibition IC50. Put shortly: as §1

The target of the next assay is T2, KDM6B (JMJD3) (Homo sapiens, UniProt O15054).
T2 construct: 1043-end; purchased BPS; host or cells: Bac (baculovirus system)
T2 sequence (O15054 1043-1682 isoform O15054-1 limits assumed): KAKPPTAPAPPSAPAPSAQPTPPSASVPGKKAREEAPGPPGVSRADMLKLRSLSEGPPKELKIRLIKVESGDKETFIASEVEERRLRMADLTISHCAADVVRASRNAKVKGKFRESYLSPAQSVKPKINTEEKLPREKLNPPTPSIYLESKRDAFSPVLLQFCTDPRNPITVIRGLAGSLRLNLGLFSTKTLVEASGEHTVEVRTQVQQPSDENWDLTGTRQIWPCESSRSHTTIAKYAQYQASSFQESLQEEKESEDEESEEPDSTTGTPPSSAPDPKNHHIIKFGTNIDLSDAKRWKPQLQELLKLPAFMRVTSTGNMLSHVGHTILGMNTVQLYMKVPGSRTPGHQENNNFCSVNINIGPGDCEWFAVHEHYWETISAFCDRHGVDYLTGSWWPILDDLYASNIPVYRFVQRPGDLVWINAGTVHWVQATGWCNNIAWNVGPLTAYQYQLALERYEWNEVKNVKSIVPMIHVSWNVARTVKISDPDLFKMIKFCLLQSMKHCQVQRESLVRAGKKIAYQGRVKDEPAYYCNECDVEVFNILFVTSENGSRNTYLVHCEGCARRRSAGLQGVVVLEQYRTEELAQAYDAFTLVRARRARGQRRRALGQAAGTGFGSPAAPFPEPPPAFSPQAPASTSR
Nature of the assay: Histone lysine demethylase AlphaLISA assay, KDM6B. It counts as biochemical. The conditions noted are these: read-out: KDM6B HDME Inhibition IC50. How it is done: Assays are performed analogously to the protocol described by PerkinElmer (Roy et al. PerkinElmer Technical Note: AlphaLISA #12, April 2011)
Enzymes are dissolved in enzyme buffer and incubated for 10 min before being added to 3% DMSO solutions of compounds in enzyme buffer. Incubated for another 10 minutes, before substrate solution is added and the reaction mixture is incubated at room temperature. 10 μL acceptor beads, suspended in Epigenetic Buffer (Perkin Elmer AL008) from stock, are added and the suspension is incubated in the dark at room temperature, before a suspension of streptavidin donor beads (Perkin Elmer 6760002) in Epigenetic Buffer is added. After incubation at room temperature in the dark the plates are read. […]
BK27M3: Biotin-ATKAAR(Kme3)SAPATGGVKKPHRY-NH2? (Caslo, Denmark) […]
Substrate Solution: Substrate, 25 μM L-Asc, and 10 μM α-KG in Buffer A.

A further assay deals with T3, KDM5B (Homo sapiens, UniProt Q9UGL1).
T3 construct: (a.a. 1-752); host or cells: U2OS
T3 sequence (Q9UGL1 1-752): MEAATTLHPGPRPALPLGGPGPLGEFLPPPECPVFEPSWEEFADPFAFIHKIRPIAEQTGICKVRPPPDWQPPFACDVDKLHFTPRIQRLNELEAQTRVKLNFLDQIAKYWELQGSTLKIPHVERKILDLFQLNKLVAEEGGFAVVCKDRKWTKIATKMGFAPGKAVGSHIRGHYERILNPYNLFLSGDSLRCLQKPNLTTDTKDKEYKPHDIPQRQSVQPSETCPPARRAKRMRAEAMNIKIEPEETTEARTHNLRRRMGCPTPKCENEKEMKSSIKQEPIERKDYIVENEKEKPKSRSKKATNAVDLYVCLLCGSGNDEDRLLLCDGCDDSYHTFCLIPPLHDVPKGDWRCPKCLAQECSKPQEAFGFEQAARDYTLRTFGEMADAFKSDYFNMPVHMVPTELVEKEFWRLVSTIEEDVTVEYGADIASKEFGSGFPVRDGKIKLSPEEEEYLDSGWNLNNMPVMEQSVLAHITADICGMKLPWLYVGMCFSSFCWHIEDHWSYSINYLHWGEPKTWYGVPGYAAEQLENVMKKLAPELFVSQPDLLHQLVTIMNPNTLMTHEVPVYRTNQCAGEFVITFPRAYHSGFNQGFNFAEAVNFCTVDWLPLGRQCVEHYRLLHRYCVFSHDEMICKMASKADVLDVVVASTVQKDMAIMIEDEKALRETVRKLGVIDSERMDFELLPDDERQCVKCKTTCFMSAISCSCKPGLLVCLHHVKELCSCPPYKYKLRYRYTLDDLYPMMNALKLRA
Put plainly: Histone lysine demethylase immunofluorescence assay, U2OS cells transfected with KDM5B. Particulars: U2OS cells transfected with pCMVHA KDM5B; mark detected H3K4me2; 20 hours. It counts as cell-based. How it is done:
U2OS cells were seeded 24 hours before transfection. Transfection was performed with Fugene HD transfection reagent as recommended by the manufacturer. 6 hours after transfection, the cells were harvested and seeded into multi well plates into media containing compound. The media used was DMEM containing 10% FBS and pen/strep. 20 hours after incubation of cells with compounds, the cells were washed in PBS, harvested by fixation with formaldehyde 4% aqueous solution, and washed in PBS. Subsequently, the cells were permeabilized in PBS with 0.2% Triton X-100 for. Blocking was performed in PBS with 0.2% Triton X-100 and 5% FBS. The cells were incubated with primary antibodies in blocking solution over night at 4° C. The primary antibodies used in the assays were HA.11 (Covance, MMS-101P) and the antibody detecting the mark specified in the table below. After incubation with primary antibodies, the cells were washed with PBS, incubated with secondary antibodies (Alexa fluor 594 goat anti rabbit IgG, Invitrogen, A11012; Alexa flour 488 donkey anti mouse IgG, Invitrogen, A21202) and Hoechst, (Sigma, 33342) in blocking solution, and washed again with PBS. Finally, PBS was added and high throughput imaging and analysis were performed by an IN Cell Analyzer 1000 (GE Healthcare). The robot software analyzed individual cells and divided these into HA+ (transfected cells) and HA− (non-transfected cells). The IC50 values were based on an average measure of the staining of the mark specified in the table below in the transfected cells.

KDM6A (UTX), sequence (O15550 919-1401): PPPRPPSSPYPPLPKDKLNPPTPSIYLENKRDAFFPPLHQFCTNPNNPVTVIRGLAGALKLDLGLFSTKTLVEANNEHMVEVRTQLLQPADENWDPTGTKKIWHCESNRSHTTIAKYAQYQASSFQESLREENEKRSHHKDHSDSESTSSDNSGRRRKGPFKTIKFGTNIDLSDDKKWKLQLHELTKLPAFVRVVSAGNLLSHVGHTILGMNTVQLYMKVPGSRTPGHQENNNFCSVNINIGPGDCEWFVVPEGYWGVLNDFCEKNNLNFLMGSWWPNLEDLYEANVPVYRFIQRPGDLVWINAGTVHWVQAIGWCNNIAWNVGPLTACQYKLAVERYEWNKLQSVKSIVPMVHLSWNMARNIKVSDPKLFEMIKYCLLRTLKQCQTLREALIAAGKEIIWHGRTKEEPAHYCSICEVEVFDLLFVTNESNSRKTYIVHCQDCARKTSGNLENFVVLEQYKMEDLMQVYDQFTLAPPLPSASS

For the compound `CCN(CC)C(=O)CNCc1cc(/C=N/CCC2CCCCC2)ccn1` [Compound 57, 2-[({4-[[(2-cyclohexylethyl)imino]-methyl]pyridin-2-yl}methyl)amino]-N,N-diethylacetamide], the half-inhibitory concentration (IC50) (as a rule, the concentration needed to halve the response being measured) is more than 2500 nM on KDM6A (UTX), 250 to 2500 nM at KDM2B (FBXL10) and more than 2500 nM on KDM6B (JMJD3).
As to `CN1CCN(C(=O)CNCc2cc(C=O)ccn2)CC1` [Compound 103, 2-({[2-(4-methylpiperazin-1-yl)-2-oxoethyl]-amino}methyl)-pyridine-4-carbaldehyde], the IC50 at KDM5B was 250 to 2500 nM; on KDM6A (UTX), more than 2500 nM; at KDM2B (FBXL10), more than 2500 nM; on KDM6B (JMJD3), more than 2500 nM.
As for `CN(C)CCCNCc1cc(CN)ccn1` [Compound 3, [2-({[3-(dimethylamino)propyl]-amino}methyl)pyridin-4-yl]methanamine], the IC50 against KDM5B is less than 250 nM; on KDM6A (UTX), more than 2500 nM; at KDM2B (FBXL10), more than 2500 nM; on KDM6B (JMJD3) it was more than 2500 nM.
For the compound `CCN(CCN(C)C)C(=O)CNCc1cc(C2OCC(Cc3ccccc3)CN2C(=O)C(F)(F)F)ccn1` (centres unmarked) [Compound 90, 2-[({4-[5-benzyl-3-(trifluoroacetyl)-1,3-oxazinan-2-yl]pyridin-2-yl}methyl)amino]-N-[2-(dimethylamino)-ethyl]-N-ethylacetamide], the IC50 was less than 250 nM against KDM5B, more than 2500 nM on KDM6A (UTX) and more than 2500 nM at KDM2B (FBXL10).
Regarding `CCCCCCCC/N=C/c1ccnc(CNCC(=O)N(CC)CC)c1` [Compound 58, N,N-diethyl-2-[({4-[(octylimino)methyl]-pyridin-2-yl}methyl)amino]-acetamide], the values for the IC50 at KDM6A (UTX), at KDM2B (FBXL10) and on KDM6B (JMJD3) were more than 2500 nM, 250 to 2500 nM and more than 2500 nM, respectively.
On to `CCN(CC)CCCCNCc1cc(/C=N/CCOC)ccn1` [Compound 60, [4-(diethylamino)butyl]-({4-[[(2-methoxyethyl)imino]-methyl]pyridin-2-yl}methyl)amine], for which the IC50 on KDM6A (UTX), at KDM2B (FBXL10) and at KDM6B (JMJD3) was more than 2500 nM throughout.
For the compound `CCN(CC)CCCCNCc1cc(/C=N\CCC2CCCCC2)ccn1` [Compound 67, (2-cyclohexylethyl)-({[2-({[4-(diethylamino)-butyl]amino}methyl)pyridin-4-yl]methylidene})-amine], the IC50 against KDM5B is less than 250 nM; on KDM6A (UTX) it was more than 2500 nM; at KDM2B (FBXL10), more than 2500 nM.
As to `CN(CC(=O)N1CCCCC1)Cc1cc(C=O)ccn1` [Compound 120, 2-({methyl[2-oxo-2-(piperidin-1-yl)ethyl]amino}-methyl)pyridine-4-carbaldehyde], the IC50 on KDM5B, at KDM6A (UTX) and at KDM2B (FBXL10) was more than 2500 nM each time.
Regarding `CN(C)CCC/N=C/c1ccnc(CNCCCN(C)C)c1` [Compound 37, [3-(dimethylamino)propyl]-({4-[{[3-(dimethylamino)propyl]-imino}methyl]pyridin-2-yl}methyl)amine], the results for the IC50 at KDM5B, on KDM2B (FBXL10) and on KDM6B (JMJD3) were less than 250 nM, more than 2500 nM and more than 2500 nM, respectively.
As for `CN(Cc1ccccc1F)C(=O)CNCc1cc(/C=N/CCO)ccn1` [Compound 92, N-[(2-fluorophenyl)methyl]-2-[({4-[[(2-hydroxyethyl)imino]-methyl]pyridin-2-yl}methyl)amino]-N-methylacetamide], the IC50 on KDM5B, at KDM6A (UTX) and at KDM2B (FBXL10) was more than 2500 nM throughout.
`CCN(CCN(C)C)C(=O)CNCc1cc(C2OCC3(CC3)CN2C(=O)C(F)(F)F)ccn1` (centres unmarked) [Compound 91, N-[2--(dimethylamino)-ethyl]-N-ethyl-2-[({4-[7-(trifluoroacetyl)-5-oxa-7-azaspiro[2.5]-octan-6-yl]pyridin-2-yl}methyl)amino]-acetamide]: the figures for the half-maximal inhibitory concentration (IC50) against KDM5B, on KDM6A (UTX) and at KDM2B (FBXL10) were less than 250 nM, more than 2500 nM and more than 2500 nM, respectively.
With `OCC/N=C/c1ccnc(CNCCc2ccccc2OCc2ccccc2)c1` [Compound 93, 2-[({2-[({2-[2-(benzyloxy)phenyl]-ethyl}amino)methyl]-pyridin-4-yl}methylidene)-amino]ethan-1-ol], the IC50 at KDM5B, on KDM6A (UTX) and at KDM2B (FBXL10) was more than 2500 nM each time.
Turning to `C(=N\C1CC1)/c1ccnc(CNCCCCN2CCC2)c1` [Compound 44, N-{[2-({[4-(azetidin-1-yl)butyl]amino}methyl)-pyridin-4-yl]methylidene}-cyclopropanamine], the IC50 is more than 2500 nM on KDM6A (UTX), more than 2500 nM at KDM2B (FBXL10) and 250 to 2500 nM on KDM6B (JMJD3).
For `CN(C)CCCCCNCc1cc(C=O)ccn1` [Compound 114, 2-({[5-(dimethylamino)-pentyl]amino}methyl)-pyridine-4-carbaldehyde], the IC50 on KDM5B is less than 250 nM; on KDM2B (FBXL10) it was more than 2500 nM; at KDM6B (JMJD3) it was more than 2500 nM.
Regarding `CC(C)C[C@H](NCc1cc(/C=N/CCO)ccn1)C(=O)N1CCCCC1` [Compound 95, (2S)-2-[({4-[[(2-hydroxyethyl)imino]-methyl]pyridin-2-yl}methyl)amino]-4-methyl-1-(piperidin-1-yl)pentan-1-one], the IC50 against KDM5B, at KDM6A (UTX) and on KDM2B (FBXL10) was more than 2500 nM throughout.
Turning to `CCN(CC(C)(C)N(C)C)C(=O)CNCc1cc(C=O)ccn1` [Compound 118, N-[2-(dimethylamino)-2-methylpropyl]-N-ethyl-2-{[(4-formylpyridin-2-yl)methyl]amino}-acetamide], the IC50 is less than 250 nM at KDM5B, more than 2500 nM at KDM6A (UTX) and more than 2500 nM on KDM2B (FBXL10).
Take `CCN(CCC#N)C(=O)CNCc1cc(/C=N/CCO)ccn1` [Compound 94, N-(2-cyanoethyl)-N-ethyl-2-[({4-[[(2-hydroxyethyl)imino]-methyl]pyridin-2-yl}methyl)amino]-acetamide]: the results for the IC50 against KDM5B, at KDM6A (UTX) and on KDM2B (FBXL10) were 250 to 2500 nM, more than 2500 nM and 250 to 2500 nM, respectively.
